Measurements as given in article PMC9252884 (Biomolecules & Therapeutics, 2022).

Target: TrkA (tropomyosin receptor kinase A) (Homo sapiens, UniProt P04629)
Experiment: TR-FRET
Type: biochemical

Sequence of TrkA (tropomyosin receptor kinase A) (P04629 441-796 limits assumed): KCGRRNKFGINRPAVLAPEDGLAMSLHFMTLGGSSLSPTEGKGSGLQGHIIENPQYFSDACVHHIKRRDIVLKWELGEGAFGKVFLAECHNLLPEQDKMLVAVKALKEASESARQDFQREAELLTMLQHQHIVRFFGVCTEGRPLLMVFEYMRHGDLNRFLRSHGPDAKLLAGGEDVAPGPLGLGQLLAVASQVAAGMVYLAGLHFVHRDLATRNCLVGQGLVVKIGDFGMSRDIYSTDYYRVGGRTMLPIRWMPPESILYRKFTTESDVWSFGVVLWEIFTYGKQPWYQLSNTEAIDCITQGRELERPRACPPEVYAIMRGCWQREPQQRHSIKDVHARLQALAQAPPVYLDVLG

IC50: 43.3 nM
Structure (SMILES): Nc1ncc(-c2cnn(C3CCNCC3)c2)cc1-c1nc2ccccc2o1 [KRC-108, 3-(benzo[d]oxazol-2-yl)-5-(1-(piperidin-4-yl)-1H-pyrazol-4-yl)pyridin-2-amine]
